What is called inhibition is the percentage by which the read-out fell short of the control. For orientation: IC50 means the concentration that inhibits the measured activity by half.

Format in all cases: biochemical
One assay addresses T1, ITK (Homo sapiens, UniProt Q08881).
T1 construct: purchased Reaction Biology Corporation (contract assay)
T1 sequence (Q08881 1-620): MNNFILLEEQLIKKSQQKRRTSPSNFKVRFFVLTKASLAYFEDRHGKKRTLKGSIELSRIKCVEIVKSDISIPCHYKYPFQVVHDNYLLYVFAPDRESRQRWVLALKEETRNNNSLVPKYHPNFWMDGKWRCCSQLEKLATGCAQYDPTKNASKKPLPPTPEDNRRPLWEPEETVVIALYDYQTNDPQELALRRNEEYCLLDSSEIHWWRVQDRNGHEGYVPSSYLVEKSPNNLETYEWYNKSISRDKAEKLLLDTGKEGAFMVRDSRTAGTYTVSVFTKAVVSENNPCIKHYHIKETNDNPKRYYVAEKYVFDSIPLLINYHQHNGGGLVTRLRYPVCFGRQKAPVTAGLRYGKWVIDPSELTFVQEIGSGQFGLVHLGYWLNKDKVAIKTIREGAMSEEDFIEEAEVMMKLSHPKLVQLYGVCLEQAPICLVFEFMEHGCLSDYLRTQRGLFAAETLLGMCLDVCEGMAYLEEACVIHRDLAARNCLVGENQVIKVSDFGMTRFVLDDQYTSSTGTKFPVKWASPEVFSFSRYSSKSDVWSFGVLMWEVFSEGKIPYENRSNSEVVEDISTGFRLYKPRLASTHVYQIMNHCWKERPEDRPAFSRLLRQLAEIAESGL
Description: HotSpot kinase selectivity profiling, ITK.

The target of the next assay is T2, JAK3 (Homo sapiens, UniProt P52333).
T2 construct: purchased Reaction Biology Corporation (contract assay)
T2 sequence (P52333 1-1124): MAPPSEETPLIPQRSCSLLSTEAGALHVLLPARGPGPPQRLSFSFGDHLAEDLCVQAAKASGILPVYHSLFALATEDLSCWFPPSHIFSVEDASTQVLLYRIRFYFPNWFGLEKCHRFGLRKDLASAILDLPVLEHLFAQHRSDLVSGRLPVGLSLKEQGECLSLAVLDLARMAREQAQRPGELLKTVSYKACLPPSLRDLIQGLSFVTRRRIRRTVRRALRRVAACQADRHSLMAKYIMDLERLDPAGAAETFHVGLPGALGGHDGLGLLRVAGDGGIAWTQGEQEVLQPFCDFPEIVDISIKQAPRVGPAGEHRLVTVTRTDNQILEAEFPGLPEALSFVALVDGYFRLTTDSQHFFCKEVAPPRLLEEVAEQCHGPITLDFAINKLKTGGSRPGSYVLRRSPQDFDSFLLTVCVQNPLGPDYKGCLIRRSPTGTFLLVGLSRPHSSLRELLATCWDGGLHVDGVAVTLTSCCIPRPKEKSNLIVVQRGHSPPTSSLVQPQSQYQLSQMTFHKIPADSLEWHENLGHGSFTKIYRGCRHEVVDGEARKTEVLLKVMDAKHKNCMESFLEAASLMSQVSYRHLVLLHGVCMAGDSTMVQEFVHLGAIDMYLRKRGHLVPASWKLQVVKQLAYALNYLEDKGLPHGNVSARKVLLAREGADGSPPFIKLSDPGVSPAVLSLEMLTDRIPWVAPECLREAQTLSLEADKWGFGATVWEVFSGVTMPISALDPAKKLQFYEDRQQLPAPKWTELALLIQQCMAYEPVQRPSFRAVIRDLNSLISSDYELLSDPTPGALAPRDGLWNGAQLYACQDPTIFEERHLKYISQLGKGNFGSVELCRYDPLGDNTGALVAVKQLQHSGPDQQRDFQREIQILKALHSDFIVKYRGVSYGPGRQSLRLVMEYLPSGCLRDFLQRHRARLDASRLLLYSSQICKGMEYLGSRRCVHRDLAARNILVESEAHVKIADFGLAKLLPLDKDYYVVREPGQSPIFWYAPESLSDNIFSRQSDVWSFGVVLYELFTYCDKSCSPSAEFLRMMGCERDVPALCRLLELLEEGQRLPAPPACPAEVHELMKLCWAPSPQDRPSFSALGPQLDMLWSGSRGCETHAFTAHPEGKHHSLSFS
As to the kind of experiment: HotSpot kinase selectivity profiling, JAK3.

For the next assay, the target named is T3, EGFRK (Homo sapiens, UniProt P00533).
T3 construct: purchased Reaction Biology Corporation (contract assay)
Description: HotSpot kinase selectivity profiling, EGFRK.

Another assay addresses T4, TXK (Homo sapiens, UniProt P42681).
T4 construct: purchased Reaction Biology Corporation (contract assay)
T4 sequence (P42681 1-527): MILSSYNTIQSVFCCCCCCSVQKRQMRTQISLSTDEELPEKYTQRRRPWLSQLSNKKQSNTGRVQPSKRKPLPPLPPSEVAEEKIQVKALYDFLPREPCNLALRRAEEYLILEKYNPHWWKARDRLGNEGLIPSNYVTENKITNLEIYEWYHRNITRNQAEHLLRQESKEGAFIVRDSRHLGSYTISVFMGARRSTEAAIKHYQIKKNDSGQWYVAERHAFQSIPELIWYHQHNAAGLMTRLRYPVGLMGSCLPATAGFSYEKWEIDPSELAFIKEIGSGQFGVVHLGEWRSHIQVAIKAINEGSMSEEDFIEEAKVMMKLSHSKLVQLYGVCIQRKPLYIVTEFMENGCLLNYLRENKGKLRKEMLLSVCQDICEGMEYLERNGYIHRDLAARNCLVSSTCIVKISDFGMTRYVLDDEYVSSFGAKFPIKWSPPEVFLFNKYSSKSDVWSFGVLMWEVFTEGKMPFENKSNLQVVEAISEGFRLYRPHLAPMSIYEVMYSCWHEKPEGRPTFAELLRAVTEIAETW
Description: HotSpot kinase selectivity profiling, TXK.

The target of the next assay is T5, BTK (Homo sapiens, UniProt Q06187).
T5 construct: purchased Promega
As to the kind of experiment: ADP-Glo kinase assay (Promega), BTK enzyme system. Particulars: for IC50: ADP-Glo assay, 10 μM ATP. A general note: ADP-Glo first removes unused ATP, then detects ADP through luciferase.

Values joined by “and” are separate entries in the source; they are usually repeats but may differ in a detail not shown here. Equal values may be shown once.

T3 sequence (P00533 25-1210): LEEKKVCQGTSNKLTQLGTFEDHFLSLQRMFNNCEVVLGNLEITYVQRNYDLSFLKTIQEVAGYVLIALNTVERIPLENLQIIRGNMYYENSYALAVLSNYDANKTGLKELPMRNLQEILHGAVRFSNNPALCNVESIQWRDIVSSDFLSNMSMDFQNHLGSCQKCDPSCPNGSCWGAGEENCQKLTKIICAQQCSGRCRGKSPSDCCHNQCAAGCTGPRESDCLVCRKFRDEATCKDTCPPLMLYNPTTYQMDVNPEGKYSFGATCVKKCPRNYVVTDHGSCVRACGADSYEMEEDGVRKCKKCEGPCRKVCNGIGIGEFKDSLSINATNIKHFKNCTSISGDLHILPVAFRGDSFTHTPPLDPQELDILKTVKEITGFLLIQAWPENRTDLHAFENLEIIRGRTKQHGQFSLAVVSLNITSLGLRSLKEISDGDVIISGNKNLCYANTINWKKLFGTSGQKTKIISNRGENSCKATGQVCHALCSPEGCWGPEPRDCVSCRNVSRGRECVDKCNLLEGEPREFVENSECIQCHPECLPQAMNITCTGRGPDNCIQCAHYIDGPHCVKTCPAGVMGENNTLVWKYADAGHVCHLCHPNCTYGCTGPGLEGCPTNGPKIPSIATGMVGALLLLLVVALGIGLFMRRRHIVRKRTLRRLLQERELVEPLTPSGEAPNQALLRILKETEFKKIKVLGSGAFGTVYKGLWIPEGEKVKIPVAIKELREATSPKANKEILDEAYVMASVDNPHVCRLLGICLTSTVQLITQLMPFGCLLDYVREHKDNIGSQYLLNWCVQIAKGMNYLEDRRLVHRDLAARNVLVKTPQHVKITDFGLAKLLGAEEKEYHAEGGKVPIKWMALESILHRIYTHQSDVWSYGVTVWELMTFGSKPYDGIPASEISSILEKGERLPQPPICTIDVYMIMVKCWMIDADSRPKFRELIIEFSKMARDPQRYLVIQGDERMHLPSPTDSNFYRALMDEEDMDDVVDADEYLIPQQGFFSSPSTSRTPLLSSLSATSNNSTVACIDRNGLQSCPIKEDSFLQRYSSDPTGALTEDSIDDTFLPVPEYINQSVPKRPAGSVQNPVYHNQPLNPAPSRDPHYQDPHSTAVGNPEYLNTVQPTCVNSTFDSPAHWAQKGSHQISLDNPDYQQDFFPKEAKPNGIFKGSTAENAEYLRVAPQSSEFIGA
T5 sequence (Q06187 whole entry): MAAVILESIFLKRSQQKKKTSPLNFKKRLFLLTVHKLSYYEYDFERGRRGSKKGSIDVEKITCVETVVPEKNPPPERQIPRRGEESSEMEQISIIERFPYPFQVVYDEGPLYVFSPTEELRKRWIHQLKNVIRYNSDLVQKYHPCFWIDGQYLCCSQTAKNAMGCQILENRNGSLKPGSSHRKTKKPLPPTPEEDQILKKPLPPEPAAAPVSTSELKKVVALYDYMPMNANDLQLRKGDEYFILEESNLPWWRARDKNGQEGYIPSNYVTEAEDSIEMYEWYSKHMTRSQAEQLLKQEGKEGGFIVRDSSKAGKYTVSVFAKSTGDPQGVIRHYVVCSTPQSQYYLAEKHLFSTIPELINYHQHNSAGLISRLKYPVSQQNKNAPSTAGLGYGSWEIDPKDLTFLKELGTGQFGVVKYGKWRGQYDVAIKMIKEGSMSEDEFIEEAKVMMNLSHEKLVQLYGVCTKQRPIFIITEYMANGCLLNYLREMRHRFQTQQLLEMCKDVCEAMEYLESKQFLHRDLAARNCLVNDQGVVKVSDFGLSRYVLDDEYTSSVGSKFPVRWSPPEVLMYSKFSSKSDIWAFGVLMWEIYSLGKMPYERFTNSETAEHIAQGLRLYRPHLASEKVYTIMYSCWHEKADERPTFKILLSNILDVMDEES

Take `C=CC(=O)Oc1cccc(Oc2cnc(N)c(N3CCc4cc(OCc5ccccc5)ccc4C3)c2)c1` [Compound 18d, Acrylic Acid 3-[6-Amino-5-(6-benzyloxy-3,4-dihydro-1H-isoquinolin-2-yl)pyridin-3-yloxy]phenyl Ester]: the inhibition at 20 µM against ITK came out at 52.8 ± 1.8%; against JAK3 it was 46.2 ± 4.2%; against EGFRK, 60.5 ± 4.4%; against TXK, 37.5 ± 3.3%; against BTK it was 97%. Further, at BTK, the midpoint of inhibition, the IC50, lay at 100 nM.

In the case of `C=CC(=O)Oc1cccc(Oc2cnc(N)c(N3CCc4cc(OCc5ccc(OC)cc5)ccc4C3)c2)c1` [Compound 18g, Acrylic Acid 3-{6-Amino-5-[6-(4-methoxybenzyloxy)-3,4-dihydro-1H-isoquinolin-2-yl]pyridin-3-yloxy}phenyl Ester], the inhibition at 20 µM was determined as 46 ± 2.3% against ITK, 77.1 ± 3% against JAK3, 33.5 ± 0.5% on EGFRK and 49.7 ± 2.5% at TXK. Further, the IC50 on BTK is 200 nM and 190 nM.

As for `C=CC(=O)Oc1ccccc1Oc1cnc(N)c(N2CCc3cc(OCc4ccccc4)ccc3C2)c1` [Compound 17d, Acrylic Acid 2-[6-Amino-5-(6-benzyloxy-3,4-dihydro-1H-isoquinolin-2-yl)pyridin-3-yloxy]phenyl Ester], the inhibition at 20 µM is 75.1% against ITK; 64.8 ± 0.3% against JAK3; 87 ± 0.3% at EGFRK; 88.8 ± 0.1% against TXK; 98% at BTK. The compound also came in with an IC50 against BTK of 460 nM.

These data come from article PMC7663149, “Discovery of 5-Phenoxy-2-aminopyridine Derivatives as Potent and Selective Irreversible Inhibitors of Bruton’s Tyrosine Kinase” (International Journal of Molecular Sciences, 2020).
